*1 amine or outer side, *2 acyl side, *3 side chain or, on linkers, in order; H or OH if unused. Where a SMILES comes first, the peptide text is derived from it. Side-chain parts run from the residue outwards. The star is where a group is joined. C18 diacid = O=C(O)CCCCCCCCCCCCCCCCC(=O)*; γGlu = O=C(O)[C@H](CCC(=O)[*:2])N[*:1]; Isovaleryl = CC(C)CC(=O)*; AEEA = NCCOCCOCC(=O)O
Biological target: T1, Human Neuropeptide Y2 Receptor (Homo sapiens, UniProt P49146)
T1 construct: purchased CHEMICON HTS066M
T1 sequence (P49146 1-381): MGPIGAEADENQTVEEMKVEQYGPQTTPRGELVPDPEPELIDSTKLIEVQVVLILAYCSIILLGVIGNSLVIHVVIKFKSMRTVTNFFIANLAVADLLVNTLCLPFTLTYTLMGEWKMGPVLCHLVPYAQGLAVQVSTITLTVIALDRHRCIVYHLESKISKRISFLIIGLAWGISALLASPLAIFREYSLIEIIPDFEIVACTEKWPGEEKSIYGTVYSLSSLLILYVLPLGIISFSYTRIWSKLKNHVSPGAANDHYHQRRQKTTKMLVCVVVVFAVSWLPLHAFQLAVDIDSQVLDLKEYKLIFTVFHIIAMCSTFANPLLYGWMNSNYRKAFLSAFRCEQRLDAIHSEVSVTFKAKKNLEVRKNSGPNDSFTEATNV
Test: Radioligand binding competition assay (RLB)
Conditions: Table 3; human 125I-PYY (1-36) 0.02 nM, Y2 receptor membranes; read-out: Ki
Method in brief: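 Membranes from cells expressing human Y2 receptor (0.5 μg protein/well) were incubated with radioligand and serially diluted peptides in 50 mM HEPES, 5 mM MgCl2, 1 mM CaCl2, 0.2% ovalbumin, pH 7.4, for 2 h at room temperature with shaking. Bound radioactivity was collected by filtration and counted; IC50 from sigmoidal nonlinear regression.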

Row | SMILES | Ki
1 | CC[C@H](C)[C@H](NC(=O)[C@H](CCC(=O)O)NC(=O)[C@H](CCC(=O)O)NC(=O)[C@@H]1CCCN1C(=O)[C@H](CO)NC(=O)[C@H](C)NC(=O)[C@H](CC(=O)O)NC(=O)[C@H](CCC(=O)O)NC(=O)[C@@H]1CCCN1C(=O)[C@@H]1CCCN1C(=O)[C@H](CCCCNC(=O)COCCOCCNC(=O)COCCOCCNC(=O)CC[C@H](NC(=O)CCCCCCCCCCCCCCCCC(=O)O)C(=O)O)NC(=O)[C@H](CCC(=O)O)NC(=O)[C@@H]1CCCN1C(=O)[C@H](C)NC(=O)CC(C)C)C(=O)N[C@@H](CCC(N)=O)C(=O)N[C@@H](CCCNC(=N)N)C(=O)N[C@@H](Cc1ccc(O)cc1)C(=O)N[C@@H](Cc1ccc(O)cc1)C(=O)N[C@H](C(=O)N[C@@H](CO)C(=O)N[C@@H](CC(C)C)C(=O)N[C@@H](CCCNC(=N)N)C(=O)N[C@@H](Cc1c[nH]cn1)C(=O)N[C@@H](Cc1ccc(O)cc1)C(=O)N[C@@H](Cc1ccc(O)cc1)C(=O)N[C@@H](CC(N)=O)C(=O)N[C@@H](Cc1c[nH]c2ccccc12)C(=O)N[C@@H](CC(C)C)C(=O)N[C@H](C(=O)N[C@@H](CCCNC(=N)N)C(=O)N[C@@H](CCC(N)=O)C(=O)N[C@@H](CCCNC(=N)N)C(=O)N[C@@H](Cc1ccc(O)cc1)C(N)=O)[C@@H](C)O)C(C)C [Compound 61, N{alpha-4}-(3-methylbutanoyl)-N{epsilon-7}-[2-(2-{2-[2-(2-{2-[(4S)-4-carboxy-4-(17-carboxyheptadecanamido)butanamido]ethoxy}ethoxy)acetamido]ethoxy}ethoxy)acetamido]-[4A,7K,9P,17I,18Q,22V,28Y,30W,31L]hPYY (4-36)] | 0.4 nM
2 | CC(C)CC(=O)N[C@@H](C)C(=O)N1CCC[C@H]1C(=O)N[C@@H](CCC(=O)O)C(=O)N[C@@H](CCCCNC(=O)COCCOCCNC(=O)COCCOCCNC(=O)CC[C@H](NC(=O)CCCCCCCCCCCCCCCCC(=O)O)C(=O)O)C(=O)N1CCC[C@H]1C(=O)N[C@@H](CCC(=O)O)C(=O)N[C@@H](CCC(=O)O)C(=O)N[C@@H](CC(=O)O)C(=O)N[C@@H](C)C(=O)N[C@@H](CO)C(=O)N1CCC[C@H]1C(=O)N[C@@H](CCC(=O)O)C(=O)N[C@@H](CCC(=O)O)C(=O)N[C@@H](CC(C)C)C(=O)N[C@@H](CCC(N)=O)C(=O)N[C@@H](CCCNC(=N)N)C(=O)N[C@@H](Cc1ccc(O)cc1)C(=O)N[C@@H](Cc1ccc(O)cc1)C(=O)N[C@H](C(=O)N[C@@H](CO)C(=O)N[C@@H](CC(C)C)C(=O)N[C@@H](CCCNC(=N)N)C(=O)N[C@@H](C)C(=O)N[C@@H](Cc1ccc(O)cc1)C(=O)N[C@@H](Cc1ccc(O)cc1)C(=O)N[C@@H](CC(N)=O)C(=O)N[C@@H](Cc1c[nH]c2ccccc12)C(=O)N[C@@H](CC(C)C)C(=O)N[C@H](C(=O)N[C@@H](CCCNC(=N)N)C(=O)N[C@@H](CCC(N)=O)C(=O)N[C@@H](CCCNC(=N)N)C(=O)N[C@@H](Cc1ccc(O)cc1)C(N)=O)[C@@H](C)O)C(C)C [Compound 63, N{alpha-4}-(3-methylbutanoyl)-N{epsilon-7}-[2-(2-{2-[2-(2-{2-[(4S)-4-carboxy-4-(17-carboxyheptadecanamido)butanamido]ethoxy}ethoxy)acetamido]ethoxy}ethoxy)acetamido]-[4A,7K,9E,18Q,22V,26A,28Y,30W,31L]hPYY (4-36)] | 3.13 nM
3 | CC[C@H](C)[C@H](NC(=O)[C@H](CCC(=O)O)NC(=O)[C@@H](NC(=O)[C@H](Cc1ccc(O)cc1)NC(=O)[C@H](Cc1ccc(O)cc1)NC(=O)[C@H](CCCNC(=N)N)NC(=O)[C@H](CCC(N)=O)NC(=O)[C@H](CC(C)C)NC(=O)[C@H](CCC(=O)O)NC(=O)[C@H](CCC(=O)O)NC(=O)[C@@H]1CCCN1C(=O)[C@H](CO)NC(=O)[C@H](C)NC(=O)[C@H](CC(=O)O)NC(=O)[C@H](CCC(=O)O)NC(=O)[C@H](CCC(=O)O)NC(=O)[C@@H]1CCCN1C(=O)[C@H](CCCCNC(=O)COCCOCCNC(=O)COCCOCCNC(=O)CC[C@H](NC(=O)CCCCCCCCCCCCCCCCC(=O)O)C(=O)O)NC(=O)[C@H](CCC(=O)O)NC(=O)[C@@H]1CCCN1C(=O)[C@H](C)NC(=O)CC(C)C)C(C)C)C(=O)N[C@@H](CCCNC(=N)N)C(=O)N[C@@H](Cc1c[nH]cn1)C(=O)N[C@@H](Cc1ccc(O)cc1)C(=O)N[C@@H](Cc1ccc(O)cc1)C(=O)N[C@@H](CC(N)=O)C(=O)N[C@@H](Cc1c[nH]c2ccccc12)C(=O)N[C@@H](CC(C)C)C(=O)N[C@H](C(=O)N[C@@H](CCCNC(=N)N)C(=O)N[C@@H](CCC(N)=O)C(=O)N[C@@H](CCCNC(=N)N)C(=O)N[C@@H](Cc1ccc(O)cc1)C(N)=O)[C@@H](C)O [Compound 65, N{alpha-4}-(3-methylbutanoyl)-N{epsilon-7}-[2-(2-{2-[2-(2-{2-[(4S)-4-carboxy-4-(17-carboxyheptadecanamido)butanamido]ethoxy}ethoxy)acetamido]ethoxy}ethoxy)acetamido]-[4A,7K,9E,18Q,22V,23E,24I,28Y,30W,31L]hPYY (4-36)] | 1.02 nM
4 | CC(C)CC(=O)N[C@@H](C)C(=O)N1CCC[C@H]1C(=O)N[C@@H](CCC(=O)O)C(=O)N[C@@H](CCCCNC(=O)COCCOCCNC(=O)COCCOCCNC(=O)CC[C@H](NC(=O)CCCCCCCCCCCCCCCCC(=O)O)C(=O)O)C(=O)N1CCC[C@H]1C(=O)N[C@@H](CCC(=O)O)C(=O)N[C@@H](CCC(=O)O)C(=O)N[C@@H](CC(=O)O)C(=O)N[C@@H](CO)C(=O)N[C@@H](C)C(=O)N1CCC[C@H]1C(=O)N[C@@H](CCC(=O)O)C(=O)N[C@@H](CCC(=O)O)C(=O)N[C@@H](CC(C)C)C(=O)N[C@@H](CCC(N)=O)C(=O)N[C@@H](CCCNC(=N)N)C(=O)N[C@@H](Cc1ccc(O)cc1)C(=O)N[C@@H](Cc1ccc(O)cc1)C(=O)N[C@H](C(=O)N[C@@H](CO)C(=O)N[C@@H](CC(C)C)C(=O)N[C@@H](CCCNC(=N)N)C(=O)N[C@@H](Cc1c[nH]cn1)C(=O)N[C@@H](Cc1ccc(O)cc1)C(=O)N[C@@H](Cc1ccc(O)cc1)C(=O)N[C@@H](CC(N)=O)C(=O)N[C@@H](Cc1c[nH]c2ccccc12)C(=O)N[C@@H](CC(C)C)C(=O)N[C@H](C(=O)N[C@@H](CCCNC(=N)N)C(=O)N[C@@H](CCC(N)=O)C(=O)N[C@@H](CCCNC(=N)N)C(=O)N[C@@H](Cc1ccc(O)cc1)C(N)=O)[C@@H](C)O)C(C)C [Compound 67, N{alpha-4}-(3-methylbutanoyl)-N{epsilon-7}-[2-(2-{2-[2-(2-{2-[(4S)-4-carboxy-4-(17-carboxyheptadecanamido)butanamido]ethoxy}ethoxy)acetamido]ethoxy}ethoxy)acetamido]-[4A,7K,9E,12S,13A,18Q,22V,28Y,30W,31L]hPYY (4-36)] | 4.37 nM
5 | CC(C)CC(=O)N[C@@H](C)C(=O)N1CCC[C@H]1C(=O)N[C@@H](CCC(=O)O)C(=O)N[C@@H](CCCCNC(=O)COCCOCCNC(=O)COCCOCCNC(=O)CC[C@H](NC(=O)CCCCCCCCCCCCCCCCC(=O)O)C(=O)O)C(=O)N1CCC[C@H]1C(=O)N[C@@H](CCC(=O)O)C(=O)N[C@@H](CCC(=O)O)C(=O)N[C@@H](CCC(=O)O)C(=O)N[C@@H](C)C(=O)N[C@@H](CO)C(=O)N1CCC[C@H]1C(=O)N[C@@H](CCC(=O)O)C(=O)N[C@@H](CCC(=O)O)C(=O)N[C@@H](CC(C)C)C(=O)N[C@@H](CCC(N)=O)C(=O)N[C@@H](C)C(=O)N[C@@H](Cc1ccc(O)cc1)C(=O)N[C@@H](Cc1ccc(O)cc1)C(=O)N[C@H](C(=O)N[C@@H](CO)C(=O)N[C@@H](CC(C)C)C(=O)N[C@@H](CCCNC(=N)N)C(=O)N[C@@H](Cc1c[nH]cn1)C(=O)N[C@@H](Cc1ccc(O)cc1)C(=O)N[C@@H](Cc1ccc(O)cc1)C(=O)N[C@@H](CC(N)=O)C(=O)N[C@@H](Cc1c[nH]c2ccccc12)C(=O)N[C@@H](CC(C)C)C(=O)N[C@H](C(=O)N[C@@H](CCCNC(=N)N)C(=O)N[C@@H](CCC(N)=O)C(=O)N[C@@H](CCCNC(=N)N)C(=O)N[C@@H](Cc1ccc(O)cc1)C(N)=O)[C@@H](C)O)C(C)C [Compound 68, N{alpha-4}-(3-methylbutanoyl)-N{epsilon-7}-[2-(2-{2-[2-(2-{2-[(4S)-4-carboxy-4-(17-carboxyheptadecanamido)butanamido]ethoxy}ethoxy)acetamido]ethoxy}ethoxy)acetamido]-[4A,7K,9E,11E,18Q,19A,22V,28Y,30W,31L]hPYY (4-36)] (Isovaleryl-APEK([AEEA-AEEA-γGlu-C18 diacid])PEEEASPEELQAYYVSLRHYYNWLTRQRY-NH2) | 8.47 nM
6 | CC(C)CC(=O)N[C@@H](C)C(=O)N1CCC[C@H]1C(=O)N[C@@H](CCC(=O)O)C(=O)N[C@@H](CCCCNC(=O)COCCOCCNC(=O)COCCOCCNC(=O)CC[C@H](NC(=O)CCCCCCCCCCCCCCCCC(=O)O)C(=O)O)C(=O)N1CCC[C@H]1C(=O)N[C@@H](CCC(=O)O)C(=O)N[C@@H](CCC(=O)O)C(=O)N[C@@H](CC(=O)O)C(=O)N[C@@H](CO)C(=O)N[C@@H](CO)C(=O)N[C@@H](C)C(=O)N[C@@H](CCC(=O)O)C(=O)N[C@@H](CCC(=O)O)C(=O)N[C@@H](CC(C)C)C(=O)N[C@@H](CCC(N)=O)C(=O)N[C@@H](CCCNC(=N)N)C(=O)N[C@@H](Cc1ccc(O)cc1)C(=O)N[C@@H](Cc1ccc(O)cc1)C(=O)N[C@H](C(=O)N[C@@H](CO)C(=O)N[C@@H](CC(C)C)C(=O)N[C@@H](CCCNC(=N)N)C(=O)N[C@@H](Cc1c[nH]cn1)C(=O)N[C@@H](Cc1ccc(O)cc1)C(=O)N[C@@H](Cc1ccc(O)cc1)C(=O)N[C@@H](CC(N)=O)C(=O)N[C@@H](Cc1c[nH]c2ccccc12)C(=O)N[C@@H](CC(C)C)C(=O)N[C@H](C(=O)N[C@@H](CCCNC(=N)N)C(=O)N[C@@H](CCC(N)=O)C(=O)N[C@@H](CCCNC(=N)N)C(=O)N[C@@H](Cc1ccc(O)cc1)C(N)=O)[C@@H](C)O)C(C)C [Compound 69, N{alpha-4}-(3-methylbutanoyl)-N{epsilon-7}-[2-(2-{2-[2-(2-{2-[(4S)-4-carboxy-4-(17-carboxyheptadecanamido)butanamido]ethoxy}ethoxy)acetamido]ethoxy}ethoxy)acetamido]-[4A,7K,9E,12S,14A,18Q,22V,28Y,30W,31L]hPYY (4-36)] | 5.74 nM

From patent publication US12559529B2, “NPY2 receptor agonists” (Boehringer Ingelheim International GmbH, priority 2019, dated 2026)
